What was measured:
U-2 OS [1] = experiment: AUC of culture confluence over time (live-cell imaging) (AUC (confluence % x time)); higher = more confluent culture (less growth inhibition)
Description: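 Live-cell Incucyte imaging of U-2 OS cells in F-12K medium. Compounds were tested mostly at 5, 10 and 20 uM, and cells were imaged every 4 h for up to 60 h. Value is the area under the curve of phase-contrast confluence over time.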

U-2 OS [2] = experiment: cell painting activity score (Mahalanobis distance from DMSO wells); higher = stronger morphological phenotype; conditions: 24 h
Description: (§1)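 Cell painting in U-2 OS cells (384-well, about 1,500 cells per well), compound exposure 24 h, usually six 2-fold concentrations from 20 to 0.625 uM (some compounds higher or lower). Relative cell count is the cell number per well relative to DMSO wells. Activity score is the Mahalanobis distance of the morphological profile from DMSO control wells. Mean of four technical replicate plates.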

U-2 OS [3] = experiment: relative cell count vs DMSO (cell painting) (fraction of DMSO control); higher = more cells remaining (less cytotoxic); conditions: 24 h
Description: as §1

| SMILES | AUC of culture confluence over time (U-2 OS [1]; 5 µM) | AUC of culture confluence over time (U-2 OS [1]; 10 µM) | AUC of culture confluence over time (U-2 OS [1]; 20 µM) | cell painting activity score (U-2 OS [2]; 0.625 µM) | cell painting activity score (U-2 OS [2]; 1.25 µM) | cell painting activity score (U-2 OS [2]; 2.5 µM) | cell painting activity score (U-2 OS [2]; 5 µM) | cell painting activity score (U-2 OS [2]; 10 µM) | cell painting activity score (U-2 OS [2]; 20 µM) | relative cell count (U-2 OS [3]; 0.625 µM) | relative cell count (U-2 OS [3]; 1.25 µM) | relative cell count (U-2 OS [3]; 2.5 µM) | relative cell count (U-2 OS [3]; 5 µM) | relative cell count (U-2 OS [3]; 10 µM) | relative cell count (U-2 OS [3]; 20 µM) |
| --- | --- | --- | --- | --- | --- | --- | --- | --- | --- | --- | --- | --- | --- | --- | --- |
| C[C@@]12C(=O)OC(=O)[C@]1(C)[C@H]1CC[C@@H]2O1 | 32.8 | 33.9 | 19.5 | 13.8 | 14.1 | 13.8 | 13.3 | 13.5 | 9.67 | 0.887 | 0.831 | 0.869 | 0.887 | 0.918 | 0.792 |
| Nc1ccn([C@@H]2O[C@H](CO)[C@@H](O)C2(F)F)c(=O)n1 | 29.2 | 31.9 | 28.7 | 13.7 | 14 | 14.9 | 15.2 | 15.4 | 14.3 | 0.601 | 0.571 | 0.574 | 0.581 | 0.624 | 0.589 |
| Cn1ncnc2c(=O)n(C)c(=O)nc1-2 | 16.9 | 16.5 | 14.2 | 14.5 | 14 | 15.7 | 30 | 30.1 | 29 | 0.575 | 0.386 | 0.0951 | 0.0345 | 0.021 | 0.0323 |
| Cc1ccc(C(=O)N(CCCN)[C@@H](c2oc3cc(Cl)ccc3c(=O)c2Cc2ccccc2)C(C)C)cc1.Cl | 20.2 | 15.1 | 11.9 | 13.7 | 13 | 14 | 13.6 | 25.2 | 22 | 0.217 | 0.248 | 0.234 | 0.222 | 0.0425 | 0.029 |
| CCN(CC)CCCC(C)Nc1ccnc2cc(Cl)ccc12 (configuration not stated) | – | – | – | 4.84 | 5.94 | 4.8 | 4.43 | 4.73 | 6.72 | 1.2 | 1.12 | 1.09 | 1.19 | 1.08 | 1.09 |
| COC1=C2C[C@@H](C)C[C@H](OC)[C@H](O)[C@@H](C)/C=C(\C)[C@H](OC(N)=O)[C@@H](OC)/C=C\C=C(/C)C(=O)NC(=CC1=O)C2=O | 20.3 | 18.8 | 20.8 | 8.75 | 12.7 | 13 | 14 | 13.3 | 14.5 | 0.954 | 0.911 | 0.867 | 0.759 | 0.663 | 0.619 |
| C[C@@]1(CO)[C@H](O)CC[C@@]2(C)[C@H]1CC[C@H]1C[C@@H]3C[C@@]12CC[C@]3(O)CO | 30.1 | 29 | 28.6 | 13.5 | 12.7 | 14.8 | 14.8 | 16.2 | 15.8 | 0.886 | 0.788 | 0.683 | 0.659 | 0.621 | 0.622 |
| CC[C@@H]1/C=C/C=C/C[C@H](C)[C@@H](O)[C@](C)(O)C(=O)[C@H](C)[C@@H](O)[C@H](C)C(=O)[C@H](C)[C@@H](O)[C@H](C)/C=C/C(=O)O[C@H]2[C@@H](C)[C@@H](CC1)O[C@@]1(CC[C@@H](C)[C@@H](C[C@H](C)O)O1)[C@@H]2C | 28.5 | 29.6 | 17.4 | 14.7 | 14.7 | 14.5 | 13.4 | 13.8 | 15 | 0.797 | 0.815 | 0.83 | 0.833 | 0.872 | 0.697 |
| O=C1O[C@H]2[C@@H]3OC(=O)c4cc(O)c(O)c(O)c4-c4c(O)c(O)c5oc(=O)c6c(c(O)c(O)c7oc(=O)c4c5c76)-c4c(cc(O)c(O)c4O)C(=O)OC[C@H]3OC(O)[C@@H]2OC(=O)c2cc(O)c(O)c(O)c2-c2c1cc(O)c(O)c2O (some centres not stated) | 47.1 | 42.3 | 38.4 | 5.43 | 7.35 | 6.54 | 7.71 | 7.7 | 12.5 | 1.01 | 1 | 1.04 | 1.02 | 0.968 | 0.808 |
| C=C1[C@@H](C)[C@H]2[C@H](Cc3ccccc3)NC(=O)[C@]23[C@H](OC(C)=O)/C=C/[C@@](C)(O)C(=O)[C@@H](C)C/C=C/[C@H]3[C@@H]1O | 24.3 | 26 | 27.2 | 14.5 | 15.6 | 16.1 | 17.4 | 18.8 | 19.2 | 0.575 | 0.517 | 0.557 | 0.623 | 0.562 | 0.494 |

From the supplement of paper PMC10011410
